# Tests used:
# [1] = Plasma IAsp exposure during 8-hour euglycemic clamp; assay type: in vivo, human; settings: healthy subjects, 0.2 IU/kg s.c., group A (basal BG < 4.00 mmol/L, target BG 2.5% below baseline), before PSM, n = 15, LC-MS/MS, trapezoidal, mean ± SD
# blood glucose = test: Euglycemic clamp, glucose infusion rate; assay type: in vivo, human; settings: healthy subjects, 0.2 IU/kg s.c., 8-hour euglycemic clamp, 20% dextrose, group A (target BG 2.5% below baseline), n = 15, mean ± SD
substance,measurement,setting,value
insulin aspart [IAsp],"AUCIAsp, 0-8 h",[1],566 ± 51 ng·h/mL
same,"AUCGIR, 0-8 h",blood glucose; after PSM,1433 ± 400 mg/kg
same,"AUCGIR, 0-8 h",blood glucose; before PSM,1433 ± 400 mg/kg

# Source: paper PMC11718471 (World Journal of Diabetes, 2025)
